Laboratory results taken from patent US10406191B2, “Compounds, extracts and methods from chinese medicinal herb sophora flavescens that inhibit airway contraction” (priority 2013, dated 2019).
“Also recorded” adds a separate entry of the source. Counter-ions that a name gives are not always drawn.

Assays:
[1] = test system: airway smooth muscle (ASM) in tracheal rings from OVA sensitized/challenged mice; test: Inhibition of acetylcholine-induced ASM contraction in tracheal rings (ex vivo myography, 30 min pretreatment); set-up: species or system BALB/c mice; settings: for ASM contraction to acetylcholine: isolated compound at 6.0 μg/ml, FIG. 6A/6B; for ASM contraction to acetylcholine / Ach-induced contraction (10-4 M Ach, percent of 60 mM KCL): 30 min pretreatment; for Ach-induced contraction (10-4 M Ach, percent of 60 mM KCL): 10 μg/ml (Matrine 40 μM, Sophocarpine 40 μM, Oxymatrine 37 μM); for Ach-induced contraction (10-4 M Ach, percent of 60 mM KCL) / relative potency among the matrine type alkaloids: FIGS. 12, 13; for relative potency among the matrine type alkaloids: 10 μg/ml
Procedure: To determine which herbal constituents in ASHMI™ have a direct inhibitory effect on ASM contraction, an asthmatic mouse model was induced by ovalbumin (OVA) sensitization and challenge as described previously (Zhang et al., 2010). Tracheal rings from asthmatic mice were treated with an aq. extract of ASHMI™ (100 μg/ml), or individual herb aq. extracts, G. lucidum (35 μg/ml), S. flavescens (45 μg/ml) and G. uralenisis (20 μg/ml), for 30 min prior to ex vivo acetylcholine provocation. The ASHMI™ concentration was based on our previous publication (Zhang et al., 2010). Concentrations of individual herb extracts were equivalent to their individual concentrations in ASHMI™.
Balb/c mice were sensitized by intraperitoneal (i.p.) injection of 200 μg OVA plus 2 mg of aluminum hydroxide (alum) in 400 μl of PBS on days 0 and 7. Mice were challenged intratracheally (i.t.) with 100 μg of OVA in 50 μl of PBS weekly for 2 weeks (days 14 and 21). Mice were challenged i.t. once daily with 100 μg of OVA (50 μl) on 2 consecutive days (days 28 and 29) 48 hr before sacrifice and tissue harvesting.
Forty-eight hrs after the last i.t. OVA challenge, mice were sacrificed and tracheas were excised and cut into 3 tracheal rings as previously described. Each tracheal ring was attached to a pair of mounting pins in the organ chamber of a Myograph System Model 610M system (AD Instruments, Denver, Colo.) and bathed in a chamber containing physiological salt solution (PSS (In g/L—NaCl: 6.95, KCl: 0.35, MgSO4.7H2O: 0.28, KH2PO4: 0.1561, CaCl2.2H2O: 0.36, NaHCO3: 2.1, EDTA: 0.01, Glucose: 1.09, pH=7.4). All chambers were maintained at 37° C. and were continuously bubbled with 100% 02. The change of tracheal ring tension was recorded by Power Lab Chart recording software (AD Instruments). After incubation at 37° C. for 15 min at baseline tension, passive tension applied to the tracheal ring was adjusted to 1.00 mN. Following stabilization of passive tension, tracheal rings were contracted using 60 mM KCl twice, to assess ASM contractility. Tracheal rings were washed with PSS buffer 3 times and allowed to rest at 1.00 mN for 30 min after each stimulation. The individual compounds as indicated in FIG. 14 were dissolved in DMSO and then re-suspended in PBS (DMSO <0.1%). Each drug was added to the chamber at the concentrations indicated and the pre-incubation time was 30 min. Tracheal rings were then contracted with incremental doses of acetylcholine (from 10^-8 M to 10^-4 M). PBS (vehicle) treatment was used as control.

[2] = test system: acetylcholine pre-contracted sensitized murine tracheal rings (ASM); test: Relaxation of acetylcholine pre-contracted tracheal rings; set-up: species or system mouse; settings: for effect of co-incubation with β2-AR antagonist ICI 118,551 on relaxation: FIG. 7A/7B
Procedure: FIGS. 7A-7C. Relaxation effects of trifolirhizin or the β2-AR agonist fenoterol on acetylcholine pre-contracted ASM. (A). The relaxation effect of trifolirhizin on acetylcholine-stimulated tracheal rings with or without ICI 118,551 (ICI). (B). The relaxation effect of the β2-AR agonist fenoterol on acetylcholine-contracted tracheal rings with or without ICI 118,551; Relaxation is expressed as the percent of residual contractile tone remaining at 15 min after trifolirhizin or fenoterol addition. (C). Representative myography tracings of relaxation experiment using fenoterol (upper tracing), PBS control (middle tracing) or trifolirhizin- (lower tracing) treated sensitized mouse tracheal rings (***, p≤0.001 compared to PBS control). Note the magnitude of total relaxation achieved with trifolirhizin compared to the β2-AR agonist fenoterol.
The primary therapy for acute constriction of airway smooth muscle is β2-AR agonists which are inhaled for the acute relaxation of hyperresponsive airway smooth muscle. We performed studies with trifolirhizin to determine whether it could relax pre-contracted airway smooth muscle and how the magnitude of relaxation compared to a classic β2-AR agonist fenoterol. In order to investigate the relaxation effect of trifolirhizin on ASM, we tested this isolated compound on acetylcholine pre-contracted sensitized murine tracheal rings. […] The maximal relaxation was 85% of the initial contractile tone at a trifolirhzin concentration of 20 μg/ml (FIG. 7A). In parallel studies the β2-AR agonist fenoterol only achieved 25% relaxation even at the highest concentration tested (10^-5 M).

[3] = test system: airway resistance in response to methacholine; test: Airway resistance to nebulized methacholine, forced oscillation technique (Flexivent); type: in vivo, male A/J mice; settings: nebulized 25 ul of 60 ug/ml, 15 minutes before nebulized methacholine; N=3; FIG. 15
Procedure: FIG. 15: Airway resistance in male A/J 20 g mice pretreated with nebulization of vehicle (25 ul 0.3% DMSO) or trifolirhizin (25 ul of 60 ug/ml) 15 minutes before nebulized methacholine as measured by the forced oscillation technique (Flexivent, Scireq). N=3.

[4] = test system: tracheal tissue (rings); test: Tracheal ring viability: contractile response to KCl after washout; set-up: species or system mouse; settings: 10 μg/ml
Procedure: FIG. 12. Representative real time tracing of murine tracheal ring contractions. Rings were first stimulated with 60 mM KCL to assess contractile potential. Compounds (Matrine (40 μM), Oxymatrine (37 μM), sophocarpine (40 μM) or PSS (vehicle) were added 30 minutes prior to stimulation with 10^-4 M Ach. Ring viability was tested 90 minutes after Ach washout.
We first generated a methylene chloride (MC) extract from an aq. extract of S. flavescens to obtain a flavonoid rich extract (designated MC extract, FIG. 2). […] We next generated 5 sub-fractions (MC-F1, 2, 3, 4 and 5) using preparative HPLC and tested each at 6.0 μg/ml. […] The inhibition of ASM contraction by MC-F1 was concentration-dependent (FIG. 4B) and non-toxic as contractile responses to KCl were present after buffer washings (FIG. 4C).
Having observed that Fraction 3 of S. flavescens was a potent inhibitor of Ach-stimulated tracheal contraction we tested major compounds present in this fraction in myography experiments. According to investigations using mass spectrometric techniques, the major compounds identified in SF Fraction 3 were the matrine type alkaloids-Matrine, Oxymatrine and Sophocarpine.

Question: `COc1ccc(-c2coc3cc(O)ccc3c2=O)cc1O` [3′,7-dihydroxy-4′-methoxy-isoflavone] was tested. Which “ASM contraction to acetylcholine” value [1] did it give?
Answer: Its value is “had no effect on ASM contraction”.

Question: How did the “effect of co-incubation with β2-AR antagonist ICI 118,551 on relaxation” value [2] turn out when `CC(Cc1ccc(O)cc1)NCC(O)c1cc(O)cc(O)c1` (stereo not shown) [fenoterol, fenoterol hydrobromide, reference compound] was run?
Answer: The value was “completely blocked”.

Question: What about the relaxation achieved ([2]; highest concentration tested (10^-5 M), parallel studies, FIG. 7B) of the same compound?
Answer: Its relaxation achieved is 25%.

Question: And the “time course of relaxation effect” value ([2]; increasing time of incubation)?
Answer: Its value is “slowly lost its effect”.

Question: `O=C1C=CC[C@@H]2[C@H]3CCCN4CCC[C@@H](CN12)[C@@H]34` [Sophocarpine] was tested. Which “effect of Indomethacin on the suppressive effect on tracheal contractility” value (“effect of Indomethacin” for short) [1] did it give?
Answer: Its value is “inhibited by Indomethacin”.

Question: What about the “Ach-induced contraction (10-4 M Ach, percent of 60 mM KCL)” value [1] of the same compound?
Answer: The value was “inhibited Ach-induced contraction”.

Question: What about the “relative potency among the matrine type alkaloids” value [1] of the same compound?
Answer: Its value is “more effective than Oxymatrine”.

Question: With `C[C@@H]1C[C@H]2[C@@H]3CCC4=CC(=O)C=C[C@]4(C)[C@@]3(F)[C@@H](O)C[C@]2(C)[C@@]1(O)C(=O)CO` [Dexamethasone, dexamethasone, reference compound] as the compound, how does the “acetylcholine-induced ASM contractions” value ([1]; 10 μM acute pretreatment, FIG. 6D) read?
Answer: Its value is “did not inhibit”.

Question: Which “airway resistance in response to methacholine” value [3] does the source give for `OC[C@H]1O[C@@H](Oc2ccc3c(c2)OC[C@H]2c4cc5c(cc4O[C@@H]32)OCO5)[C@H](O)[C@@H](O)[C@@H]1O` [trifolirhizin] here?
Answer: Its value is “significantly attenuated increased airway resistance”.

Question: And the “maximal relaxation (of the initial contractile tone)” value ([2]; 20 μg/ml, 10^-5 M acetylcholine pre-contraction, FIG. 7A)?
Answer: Its value is 85%.

Question: And the “effect of co-incubation with β2-AR antagonist ICI 118,551 on relaxation” value [2]?
Answer: Its value is “without effect”.

Question: And the “relaxation of pre-contracted tracheal rings, dose dependence” value ([2]; rings stimulated by 10^-5 M acetylcholine, FIG. 7A)?
Answer: The value was “dose-dependent manner”.

Question: And the acetylcholine-induced contraction ([1]; concentrations lower than 6.0 μg/ml, FIG. 6B)?
Answer: Its acetylcholine-induced contraction is “not at lower concentrations”.

Question: What about the “ASM contraction to acetylcholine” value [1] of the same compound?
Answer: The value was “significantly inhibited acetylcholine-induced contraction”.

Question: And the “effect of β2-AR antagonist ICI 118,551 on the compound's blockade of acetylcholine contraction” value ([1]; trifolirhizin 6.0 μg/ml with ICI 118,551 150 μM, 30 min preincubation, FIG. 6C)?
Answer: Its value is “had no effect; also recorded: did not block the effect”.

Question: `O=C1CCC[C@@H]2[C@H]3CCC[N+]4([O-])CCC[C@@H](CN12)[C@@H]34` (stereo partly shown) [Oxymatrine] was tested. Which “effect of Indomethacin” value [1] did it give?
Answer: Its value is “inhibited by Indomethacin”.

Question: And the “Ach-induced contraction (10-4 M Ach, percent of 60 mM KCL)” value [1]?
Answer: Its value is “inhibited Ach-induced contraction”.

Question: What about the “relative potency among the matrine type alkaloids” value [1] of the same compound?
Answer: Its value is “weakest inhibitor of contraction”.

Question: Which “effect of Indomethacin” value [1] does the source give for `O=C1CCC[C@@H]2[C@H]3CCCN4CCC[C@@H](CN12)[C@@H]34` [Matrine] here?
Answer: Its value is “inhibited by Indomethacin”.

Question: And the “Ach-induced contraction (10-4 M Ach, percent of 60 mM KCL)” value [1]?
Answer: Its value is “inhibited Ach-induced contraction”.

Question: What about the “relative potency among the matrine type alkaloids” value [1] of the same compound?
Answer: The value was “most potent; also recorded: more effective than Oxymatrine”.

Question: What about the “toxicity to tracheal tissue (response to KCL 90 minutes after washout)” value [4] of the same compound?
Answer: The value was “did not exhibit toxicity to tracheal tissue”.
